The values that follow come from patent US12551527B2, “Drug delivery systems for treatment of infections” (Wayne State University, priority 2017, dated 2026).

Where two headings read alike, the source gives them in different places.

For one series, the system named is ATCC 29213 (MSSA strain). Description: MIC by broth microdilution susceptibility testing. The format is cell-based. To be noted: Staphylococcus aureus. The method, then: (§1) Susceptibility Testing. […] The strains tested were SA 494 and ATCC 29213.
(§2) Susceptibility testing. […] The treatment groups were compared to their commercial drug counterparts, both individually and in combination. […] SA 494 is the MRSA strain, and ATCC 29213 is the MSSA strain. The results were obtained as follows:
(§3) To test the effect of the presence of one drug that may enhance the MIC of the other in combination, combination MIC studies were performed. […] The results for MIC of liposomal CFZ in 0.5×the MIC of liposomal VAN were as follows:
(§4) However, liposomal VAN+CFZ [L (VAN+CFZ)] performed much better as compared to commercial VAN+CFZ (a mixture of non-liposomal antibiotics) in MRSA 494/MSSA 29213. The L(VAN+CFZ) has more than >2-4 fold improvement of MIC as compared to VAN+CFZ. Lower the MIC, the better is the MRSA killing.

The next series deals with SA 494 (MRSA strain). The series can be described thus: MIC by broth microdilution susceptibility testing. The settings on record: Staphylococcus aureus. The format is cell-based. The method, then: as §1, §2, §3, §4
A general note: Broth dilution looks for growth in wells or tubes with falling amounts of substance.

For series [1] the following is noted: cited from earlier work.
The subject of the next series is ATCC 29213. The series can be described thus: Time-kill analysis in 24 well plates (CLSI). The format is cell-based, Staphylococcus aureus. To be noted: tested at 1/2×MIC, 1×MIC, 24 h, FIG. 13B. The method, then: Time kill analysis was performed in 24 well plates according to CLSI guidelines (Patel 2017. M100: Performance Standards for Antimicrobial Susceptibility Testing, 27th Edition .224). Bactericidal activity was defined as >3 log CFU/ml reduction from baseline (initial inoculum). […] Lower the MIC, the better is the MRSA killing.

The subject of a further series is MRSA 494 biofilm. Description: Biofilm disruption, pin lid method (Calgary biofilm device). The format is cell-based, Staphylococcus aureus. To be noted: FIG. 14, FIG. 15. The method, then: The Minimum Inhibitory […] (MIC) in presence of biofilm was determined using the pin lid method or Calgary biofilm device (Barber et al., Antimicrob Agents Chemother. 58(5):2989-92, 2014; De Oliveira et al., Int J Mol Sci. 17(9), 2016). This method is used for defining the biofilm MIC vs. antibiotic or combination of antibiotics.

As a reminder, the MIC is the lowest concentration that inhibits growth of the organism. By log P is commonly meant the decadic logarithm of the partition coefficient of the neutral form, usually between octanol and water. As for `Cc1nnc(SCC2=C(C(=O)O)N3C(=O)[C@@H](NC(=O)Cn4cnnn4)[C@H]3SC2)s1` [CCFZ, cefazolin], the MIC in the series with ATCC 29213 (MSSA strain) (MSSA 29213, Example 4 table, read-out: MIC values) is 0.5 µg/mL; with ATCC 29213 (MSSA strain) (strain 29213 (MSSA), broth microdilution, 24 h at 35° C., Example 1, read-out: MC Values (MIC)) it was 0.5 µg/mL; with SA 494 (MRSA strain) (MRSA 494, Example 4 table, read-out: MIC values) it was > 64 µg/mL; in the series on SA 494 (MRSA strain) (strain 494 (MRSA), broth microdilution, 24 h at 35° C., Example 1, read-out: MC Values (MIC)), > 16 µg/mL. Also, the “log P” value in series [1] is given as −0.58.

Regarding `CN[C@H](CC(C)C)C(=O)N[C@H]1C(=O)N[C@@H](CC(N)=O)C(=O)N[C@H]2C(=O)N[C@H]3C(=O)N[C@H](C(=O)N[C@H](C(=O)O)c4cc(O)cc(O)c4-c4cc3ccc4O)[C@H](O)c3ccc(c(Cl)c3)Oc3cc2cc(c3O[C@@H]2O[C@H](CO)[C@@H](O)[C@H](O)[C@H]2O[C@H]2C[C@](C)(N)[C@H](O)[C@H](C)O2)Oc2ccc(cc2Cl)[C@H]1O` [CVAN, vancomycin], the MIC was found to be 0.5 µg/mL with ATCC 29213 (MSSA strain) (24 h, read-out: MC Values (MIC)); 0.5 µg/mL in the series with ATCC 29213 (MSSA strain) (read-out: MIC values); 1 µg/mL in the series on SA 494 (MRSA strain) (MRSA, 24 h, read-out: MC Values (MIC)); 1 µg/mL in the series with SA 494 (MRSA strain) (MRSA, read-out: MIC values). In addition, the time-kill result in the series on ATCC 29213 is recorded as “grow above the initial inoculum at 24 h”. Further, the “biofilm disruption (in words)” value with MRSA 494 biofilm is “barely showed any anti-biofilm effect”.
